The values that follow come from US20190038588A1, “NOVEL CLASS OF COMPOUNDS FOR THE TREATMENT OF CARDIOVASCULAR DISEASE” (STICHTING KATHOLIEKE UNIVERSITEIT, priority 2016, published 2019).

Test [1] concerns the target T1, catalytic domain of the human HMG-CoA reductase (Homo sapiens, UniProt P04035).
T1 construct: containing the catalytic domain of the human HMG-CoA reductase; purchased Sigma-Aldrich CS-1090
T1 sequence (P04035 426-888 limits assumed): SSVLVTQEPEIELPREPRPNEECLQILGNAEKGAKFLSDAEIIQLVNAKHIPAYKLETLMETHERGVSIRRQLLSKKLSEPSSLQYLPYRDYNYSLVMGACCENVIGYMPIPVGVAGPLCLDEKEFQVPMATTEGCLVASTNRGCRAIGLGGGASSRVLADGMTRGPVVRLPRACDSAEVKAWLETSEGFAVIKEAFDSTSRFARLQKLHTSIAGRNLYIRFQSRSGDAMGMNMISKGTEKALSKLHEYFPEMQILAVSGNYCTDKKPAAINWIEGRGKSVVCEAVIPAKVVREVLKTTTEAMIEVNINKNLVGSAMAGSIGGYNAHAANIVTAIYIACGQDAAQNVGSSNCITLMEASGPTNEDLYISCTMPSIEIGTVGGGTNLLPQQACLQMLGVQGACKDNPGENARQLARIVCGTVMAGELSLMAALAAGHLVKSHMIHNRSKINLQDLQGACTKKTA
Nature of the test: HMG-CoA reductase activity and inhibition assay (Sigma CS-1090 kit, NADPH oxidation at 340 nm). The class given is biochemical. As to conditions: for HMGR activity (% of control) Mean (SEM): compound at 300 nM, n = 3 independent experiments. As for the experimental part:
The human HMG-CoA reductase activity and inhibition assays were performed using the HMG-CoA reductase Assay Kit from Sigma-Aldrich (Sigma CS-1090), containing the catalytic domain of the human HMG-CoA reductase. Enzyme activity was determined spectrophotometrically, measuring the oxidation of NADPH at 340 nm. The reaction mixture contained: 0.13 mM HMG-CoA, HMG-CoA reductase, and 50 mM Tris-HCl, (pH 7.5). After 15 min incubation at 37° C., the reaction was started with the addition of 0.13 mM NADPH, and monitored for 30 min. The enzyme activity was determined using the linear domain of the curve. These experiments were generally performed in small reaction volumes to increase throughput. Experiments in larger reaction volumes can improve reliability of obtained values, and are planned.

In test [2] the target is T2, mitochondrial complex III (Mus musculus, UniProt P00158).
T2 construct: the supernatant containing the mitochondria was pelleted at 14,000 g; endogenous in cells; host or cells: C2C12 cells, mitochondrial fraction
Nature of the test: Complex III enzyme activity in mitochondrial fractions of C2C12 cells (cytochrome c reduction at 550 nm). The class given is biochemical. The note with it: compound at 100 μM; background by antimycin A (2.5 μM); n = 3 independent experiments. As for the experimental part:
C2C12 pellets of 20·10^6 cells were snap frozen in liquid nitrogen and kept at −80° C. until use. For preparation of the mitochondrial fractions, tissues and cells were homogenized, resuspended in 10 mM Tris-HCl (pH 7.6), and snap frozen in aliquots as follows: cells were resuspended in 10 mM Tris-HCl and pottered, and sucrose was added (215 mM). The lysate was cleared of unbroken cells by centrifugation (10 minutes 600 g) after which the supernatant containing the mitochondria was pelleted at 14,000 g for 10 minutes, resuspended in 10 mM Tris-HCl (pH 7.6), and snap frozen in aliquots. Complex III enzyme activity was measured spectrophotometrically in duplicate as described before by determination of the cytochrome c reduction at 550 nm (Janssen et al., 2007; Mourmans et al., 1997; Rodenburg, 2011). For these measurements the following substrates were used: decylubiquinol (300 μM) and cytochrome c (50 μM). Background substraction was based on decylubiquinol auto-oxidation rates for FIG. 2, and on antimycin A (2.5 μM) for table 4. The enzyme activity was determined using the linear domain of the curve. These experiments were generally performed in small reaction volumes to increase throughput. Experiments in larger reaction volumes can improve reliability of obtained values, and are planned.

For the molecule `CC[C@H](C)C(=O)O[C@H]1C[C@@H](C)C=C2C=C[C@H](C)[C@H](CC[C@@H](O)C[C@@H](O)CC(=O)NO)[C@H]21` [lovastatin hydroxamic acid, (1S,3R,7S,8S,8aR)-8-((3R,5R)-3,5-dihydroxy-7-(hydroxyamino)-7-oxoheptyl)-3,7-dimethyl-1,2,3,7,8,8a-hexahydronaphthalen-1-yl (S)-2-methylbutanoate], in test [1], the “HMGR activity (% of control) Mean (SEM)” value is reported as 70.19 (6.79) % of control. In test [2], the “complex III activity (% of control) Mean (SEM)” value is given as 92.95 (10.32) % of control.

`CC[C@H](C)C(=O)O[C@H]1C[C@@H](C)C=C2C=C[C@H](C)[C@H](CC[C@@H](O)C[C@@H](O)CC(=O)O)[C@H]21` [lovastatin carboxylic acid, reference compound]: in test [1], the “HMGR activity (% of control) Mean (SEM)” value is 68.18 (14.81) % of control.

What is called IC50 is the concentration needed to halve the response being measured. Low values mean greater potency, high ones weaker potency. For the molecule `CCC(C)(C)C(=O)O[C@H]1C[C@@H](C)C=C2C=C[C@H](C)[C@H](CC[C@@H](O)C[C@@H](O)CC(=O)O)[C@H]21` [simvastatin carboxylic acid, reference compound], the “HMGR activity (% of control) Mean (SEM)” value in test [1] is recorded as 63.10 (10.70) % of control. The same molecule showed an IC50 in test [1] (dose-response curve of FIG. 2C, 95%-CI printed in the row below) of 39 nM.

For `CC(C)c1nc(N(C)S(C)(=O)=O)nc(-c2ccc(F)cc2)c1/C=C/[C@@H](O)C[C@@H](O)CC(=O)O` [rosuvastatin carboxylic acid, reference compound], the “HMGR activity (% of control) Mean (SEM)” value in test [1] was 24.09 (3.30) % of control.

Take `CC(C)c1nc(N(C)S(C)(=O)=O)nc(-c2ccc(F)cc2)c1/C=C/[C@@H](O)C[C@@H](O)c1nnn[nH]1` [rosuvastatin nor-tetrazole, N-(5-((3S,5R,E)-3,5-dihydroxy-5-(1H-tetrazol-5-yl)pent-1-en-1-yl)-4-(4-fluorophenyl)-6-isopropylpyrimidin-2-yl)-N-methylmethanesulfonamide]: the “HMGR activity (% of control) Mean (SEM)” value in test [1] is recorded as 86.12 (5.73) % of control. Further, in test [2], the “complex III activity (% of control) Mean (SEM)” value is recorded as 134.50 (17.29) % of control.

For `CCC(C)(C)C(=O)O[C@H]1C[C@@H](C)C=C2C=C[C@H](C)[C@H](CC[C@@H](O)C[C@@H](O)Cc3nnn[nH]3)[C@H]21` [simvastatin tetrazole, (1S,3R,7S,8S,8aR)-8-((3R,5S)-3,5-dihydroxy-6-(1H-tetrazol-5-yl)hexyl)-3,7-dimethyl-1,2,3,7,8,8a-hexahydronaphthalen-1-yl 2,2-dimethylbutanoate], in test [1], the “HMGR activity (% of control) Mean (SEM)” value is 72.43 (4.97) % of control. Besides, in test [2], the “complex III activity (% of control) Mean (SEM)” value was 80.37 (5.13) % of control.

In the case of `CC(C)c1c(C(=O)Nc2ccccc2)c(-c2ccccc2)c(-c2ccc(F)cc2)n1CC[C@@H](O)C[C@@H](O)CC(=O)O` [atorvastatin carboxylic acid, reference compound], in test [1], the “HMGR activity (% of control) Mean (SEM)” value is on record as 24.39 (8.91) % of control.

Regarding `CC[C@H](C)C(=O)O[C@H]1C[C@@H](C)C=C2C=C[C@H](C)[C@H](CC[C@@H]3C[C@@H](O)CC(=O)O3)[C@H]21` [lovastatin lactone, reference compound], the “complex III activity (% of control) Mean (SEM)” value in test [2] was 63.21 (3.31) % of control.

As for `CCC(C)(C)C(=O)O[C@H]1C[C@@H](C)C=C2C=C[C@H](C)[C@H](CC[C@@H]3C[C@@H](O)CC(=O)O3)[C@H]21` [simvastatin lactone, reference compound], the “complex III activity (% of control) Mean (SEM)” value in test [2] is 44.55 (6.27) % of control.

For the molecule `CC(C)c1c(C(=O)Nc2ccccc2)c(-c2ccccc2)c(-c2ccc(F)cc2)n1CC[C@@H]1C[C@H](O)CC(=O)O1` [atorvastatin lactone, 5-(4-fluorophenyl)-1-(2-((2R,4S)-4-hydroxy-6-oxotetrahydro-2H-pyran-2-yl)ethyl)-2-isopropyl-N,4-diphenyl-1H-pyrrole-3-carboxamide, reference compound], the “complex III activity (% of control) Mean (SEM)” value in test [2] was 80.98 (3.75) % of control.
